# Source: patent US6268366A, “Amide derivatives of substituted quinoxaline 2,3-diones as glutamate receptor antagonists” (Warner-Lambert Company, priority 2000, dated 2001)
# Assays:
# [1] = target: kainate site (non-NMDA receptor); experiment: kainate site (non-NMDA receptor) binding affinity (London and Coyle)
# [2] = target: T1, glycine (GLY) site of the NMDA receptor (Rattus norvegicus, UniProt P35439); experiment: glycine (GLY) site of the NMDA receptor binding affinity (Jones et al.)
# T1 construct: measured as described in Jones S. M., et al., Pharmacol. Methods, 1989;21:161; from tissue
# AMPA receptors = experiment: AMPA receptor binding affinity (Honore et al.)
# CF-1 strain mice = experiment: maximal electroshock (MES) assay in CF-1 strain mice, corneal electrodes; type: in vivo; details: for Ataxic (%) / Protected (%): MES, mice IV; for duration of action in maximal electroshock time course compared with PNQX: mice, 30 mg/kg IV, versus standard PNQX, FIGS. 1 and 2
# Method: Additionally, as a preliminary indicator of in vivo CNS activity related to anticonvulsant activity and potential neuroprotection, a maximal electroshock assay in CF-1 strain mice (20-25 g) was performed with corneal electrodes by conventional methods as described previously (Krall, et al., Epilepsia, 1988;19:409-428).
# FIGS. […] The graph is the percent of mice protected versus the time in minutes.
IC50 KA [1] [nM],IC50 [2] [nM],IC50 (AMPA receptors) [nM],Structure (SMILES),also measured
1660,30,350,"CC(=O)N(C)Cc1c(C)c([N+](=O)[O-])cc2[nH]c(=O)c(=O)[nH]c12 [Compound 1, N-Methyl-N-(6-methyl-7-nitro-2,3-dioxo-1,2,3,4-tetrahydro-quinoxalin-5-ylmethyl)-acetamide]",–
1980,40,980,"Cc1c([N+](=O)[O-])cc2[nH]c(=O)c(=O)[nH]c2c1CN(C)C(=O)c1ccc(Cl)cc1 [Compound 7, 4-Chloro-N-methyl-N-(6-Methyl-7-nitro-2,3-dioxo-1,2,3,4-tetrahydro-quinoxalin-5-ylmethyl)-benzamide]",–
850,5,520,"COc1ccc(C(=O)N(C)Cc2c(C)c([N+](=O)[O-])cc3[nH]c(=O)c(=O)[nH]c23)cc1 [Compound 14, 4-Methoxy-N-methyl-N-(6-methyl-7-nitro-2,3-dioxo-1,2,3,4-tetrahydro-quinoxalin-5-ylmethyl)-benzamide]",–
290,100,210,"CCOC(=O)N(C)Cc1c(C)c([N+](=O)[O-])cc2[nH]c(=O)c(=O)[nH]c12 [Compound 15, Methyl-(6-methyl-7-nitro-2,3-dioxo-1,2,3,4-tetrahydro-quinoxalin-5-ylmethyl)-carbamic acid ethyl ester]","Ataxic (%) (CF-1 strain mice; 10 min, 3 mg/kg): 0%; Protected (%) (CF-1 strain mice; 10 min, 3 mg/kg): 0%; Ataxic (%) (CF-1 strain mice; 10 min, 10 mg/kg): 0%; Protected (%) (CF-1 strain mice; 10 min, 10 mg/kg): 40%; Ataxic (%) (CF-1 strain mice; 30 min, 3 mg/kg): 0%; Protected (%) (CF-1 strain mice; 30 min, 3 mg/kg): 0%; Ataxic (%) (CF-1 strain mice; 30 min, 10 mg/kg): 0%; Protected (%) (CF-1 strain mice; 30 min, 10 mg/kg): 60%"

# Further lines, the molecule ahead of its results:
Structure (SMILES),IC50 KA [1] [nM],IC50 [2] [nM],IC50 (AMPA receptors) [nM],also measured
"Cc1c([N+](=O)[O-])cc2[nH]c(=O)c(=O)[nH]c2c1CN(C)C(=O)C1CCCCC1 [Compound 3, Cyclohexanecarboxylic acid-methyl-(6-methyl-7-nitro-2,3-dioxo-1,2,3,4-tetrahydro-quinoxalin-5-ylmethyl)amide]",3210,300,910,–
"Cc1c([N+](=O)[O-])cc2[nH]c(=O)c(=O)[nH]c2c1CN(C)C(=O)CC1CCCCC1 [Compound 4, 2-Cyclohexyl-N-methyl-N-(6-methyl-7-nitro-2,3-dioxo-1,2,3,4-tetrahydro-quinoxalin-5-ylmethyl)-acetamide]",2970,200,2050,–
"Cc1c([N+](=O)[O-])cc2[nH]c(=O)c(=O)[nH]c2c1CN(C)C(=O)Cc1ccccc1 [Compound 5, N-methyl-N-(6-methyl-7-nitro-2,3-dioxo-1,2,3,4-tetrahydro-quinoxalin-5-ylmethyl)-2-phenyl-acetamide]",590,20,350,–
"Cc1c([N+](=O)[O-])cc2[nH]c(=O)c(=O)[nH]c2c1CN(C)C(=O)c1ccccc1 [Compound 6, N-methyl-N-(6-methyl-7-nitro-2,3-dioxo-1,2,3,4-tetrahydro-quinoxalin-5-ylmethyl)-benzamide]",2770,30,1220,–
"Cc1c([N+](=O)[O-])cc2[nH]c(=O)c(=O)[nH]c2c1CN(C)C(=O)c1ccc(C(F)(F)F)cc1 [Compound 8, N-Methyl-N-(6-Methyl-7-nitro-2,3-dioxo-1,2,3,4-tetrahydro-quinoxalin-5-ylmethyl)-4-trifluoromethyl-benzamide]",3700,–,1920,–
"Cc1c([N+](=O)[O-])cc2[nH]c(=O)c(=O)[nH]c2c1CN(C)C(=O)c1ccc(Cl)c(Cl)c1 [Compound 9, 3,4-Dichloro-N-methyl-N-(6-methyl-7-nitro-2,3-dioxo-1,2,3,4-tetrahydro-quinoxalin-5-ylmethyl)-benzamide]",3450,–,1690,–
"Cc1c([N+](=O)[O-])cc2[nH]c(=O)c(=O)[nH]c2c1CN(C)C(=O)c1ccc([N+](=O)[O-])cc1 [Compound 10, N-Methyl-N-(6-Methyl-7-nitro-2,3-dioxo-1,2,3,4-tetrahydro-quinoxalin-5-ylmethyl)-4-nitro-benzamide]",950,–,1120,–
"Cc1c([N+](=O)[O-])cc2[nH]c(=O)c(=O)[nH]c2c1CN(C)C(=O)c1cccs1 [Compound 11, Thiophene-2-carboxylic acid-methyl-(6-methyl-7-nitro-2,3-dioxo-1,2,3,4-tetrahydro-quinoxalin-5-ylmethyl)-amide]",1230,8,460,"Ataxic (%) (CF-1 strain mice; 5 min, 10 mg/kg): 0%; Protected (%) (CF-1 strain mice; 5 min, 10 mg/kg): 0%; Ataxic (%) (CF-1 strain mice; 5 min, 30 mg/kg): 40%; Protected (%) (CF-1 strain mice; 5 min, 30 mg/kg): 40%; Ataxic (%) (CF-1 strain mice; 15 min, 10 mg/kg): 0%; Protected (%) (CF-1 strain mice; 15 min, 10 mg/kg): 40%; Ataxic (%) (CF-1 strain mice; 15 min, 30 mg/kg): 60%; Protected (%) (CF-1 strain mice; 15 min, 30 mg/kg): 80%; Ataxic (%) (CF-1 strain mice; 30 min, 10 mg/kg): 0%; Protected (%) (CF-1 strain mice; 30 min, 10 mg/kg): 40%; Ataxic (%) (CF-1 strain mice; 30 min, 30 mg/kg): 20%; Protected (%) (CF-1 strain mice; 30 min, 30 mg/kg): 40%; Ataxic (%) (CF-1 strain mice; 60 min, 10 mg/kg): 0%; Protected (%) (CF-1 strain mice; 60 min, 10 mg/kg): 0%; Ataxic (%) (CF-1 strain mice; 60 min, 30 mg/kg): 20%; Protected (%) (CF-1 strain mice; 60 min, 30 mg/kg): 40%; duration of action in maximal electroshock time course compared with PNQX (CF-1 strain mice): extended duration of action"
"Cc1c([N+](=O)[O-])cc2[nH]c(=O)c(=O)[nH]c2c1CN(C)C(=O)c1ccco1 [Compound 12, Furan-2-carboxylic acid methyl-(6-methyl-7-nitro-2,3-dioxo-1,2,3,4-tetrahydro-quinoxalin-5-ylmethyl)-amide]",1210,6,380,"Ataxic (%) (CF-1 strain mice; 3 min, 30 mg/kg): 40%; Protected (%) (CF-1 strain mice; 3 min, 30 mg/kg): 40%; Ataxic (%) (CF-1 strain mice; 15 min, 10 mg/kg): 0%; Protected (%) (CF-1 strain mice; 15 min, 10 mg/kg): 40%; Ataxic (%) (CF-1 strain mice; 15 min, 30 mg/kg): 60%; Protected (%) (CF-1 strain mice; 15 min, 30 mg/kg): 80%; Protected (%) (CF-1 strain mice; 30 min, 10 mg/kg): 40%; Ataxic (%) (CF-1 strain mice; 30 min, 30 mg/kg): 20%; Protected (%) (CF-1 strain mice; 30 min, 30 mg/kg): 40%; Ataxic (%) (CF-1 strain mice; 60 min, 30 mg/kg): 20%; Protected (%) (CF-1 strain mice; 60 min, 30 mg/kg): 40%; duration of action in maximal electroshock time course compared with PNQX (CF-1 strain mice): extended duration of action"
"Cc1c([N+](=O)[O-])cc2[nH]c(=O)c(=O)[nH]c2c1CN(C)C(=O)c1cc2ccccc2s1 [Compound 13, Benzo[b]thiophene-2-carboxylic acid methyl-(6-methyl-7-nitro-2,3-dioxo-1,2,3,4-tetrahydro-quinoxalin-5-ylmethyl)-amide]",5980,40,620,–
